Assays:
A. planipennis [1] = assay: Field trapping experiment 1 (2008), purple prism traps, Ontario; format: in vivo, Agrilus planipennis
Method: (§1) Field trapping. Three trapping experiments were carried out in green ash plantations (F. pennsylvanica Marsch) with low-to-moderate A. planipennis populations about 40 km southeast of Sarnia, Ontario (42° 58′ 0 N, 82° 24′ 0 W) in 2008, 2009 and 2010. Trees at these sites were generally healthy in appearance with low or no signs of decline, and only a small number of trees had obvious signs/symptoms of infestation by A. planipennis. In Ontario sites, trees were 20-25 years old, 4-6 m tall, 10-15 cm in diameter, and spaced about 2 m apart within a row and 2.5 m between rows. In 2010, the trapping experiment was replicated at four sites in Michigan, USA, in addition to the sites in Ontario. […] Traps were checked every 2 weeks and A. planipennis were collected, counted and sexed.
Experiment 1, conducted in Ontario in 2008, was designed to test for attractiveness of (3Z)-lactone (Bartelt et al. 2007), alone and in combination with two types of host volatiles: bark sesquiterpenes (Crook et al. 2008) and a binary blend of green leaf volatiles ((3Z)-hexenol and (2E)-hexenol) (Poland et al. 2005, de Groot et al. 2008). […] We selected Phoebe oil because it contained two additional sesquiterpenes that had been detected in ash trees and appeared to be more attractive than Manuka oil (Crook et al. 2008) and the (3Z)-hexenol and (2E)-hexenol combination based on results from de Groot et al. (2008). […]

A. planipennis [2] = assay: Field trapping experiment 3 (2010), green sticky prism traps, Ontario and Michigan; format: in vivo, Agrilus planipennis; settings: lactone alone
Method: as §1, with “Ontario. Sites in Michigan were 10-100 years old, 10-30 m tall, 15-70 cm in diameter, and located in a mixed woodlot.” for “Ontario.”, “sexed. […]” for “sexed.”
The effect of each attractant on mean catch of female and male A. planipennis was analyzed independently using ANOVA and a randomized complete block design. Sites were analyzed separately in 2009 due to differences in sex ratios. In 2010, sites in Ontario were analyzed separately from those in Michigan due to the considerable differences in stand conditions and height of traps with respect to the ash canopy. […]

| Compound | trap captures compared to unbaited controls (A. planipennis [1]) | trap captures compared to unbaited control, sites in Ontario (A. planipennis [2]; green traps in the canopy, Ontario, P<0.02) | trap catch compared to unbaited control (A. planipennis [2]; green traps, 2010, Ontario and Michigan) |
| --- | --- | --- | --- |
| O=C1C/C=C\CCCCCCCCO1 [(3Z)-lactone, (3Z)-dodecen-12-olide] | not significantly attractive | slight increase in trap captures |  |
| O=C1C/C=C/CCCCCCCCO1 [(3E)-lactone, (3E)-dodecen-12-olide] |  |  | did not affect trap catch |

From US9226503B2, “Composition and method for attraction of emerald ash borer Agrilus planipennis fairmaire (coleoptera: buprestidae)” (Her Majesty the Queen in Right of Canada, as represented by …, priority 2011, dated 2016)
